This is an account of results in US10882869B2, “Condensed heterocyclic compounds and pesticides” (NISSAN CHEMICAL CORPORATION, priority 2015, dated 2021).

Where only a bound is given, the exact number is not on record here.

The mortality is the percentage killed. High values mean a strong lethal effect, low ones a weak lethal effect. A word on the pest or weed control: it is the degree to which the test organism was suppressed or injured, in per cent. Low values mean a weak effect, high ones a strong effect. The term melting point denotes the temperature, or range, at which the solid turns liquid.

The subject of one data set is Spodoptera litura. The data set can be described thus: Insecticidal test on Spodoptera litura (cabbage leaves soaked). It counts as in vivo. The settings on record: 144 h, 500 ppm solution, 3rd-instar larvae, 6 days after, 25° C. The protocol:
Leaves of cabbage were soaked in the solutions for about 10 seconds. After the soaking, the leaves were dried in air and placed in dishes. In each dish, five 3rd-instar larvae of Spodoptera litura were released, and the dishes were covered with lids and placed in an incubator at 25° C. 6 Days after, dead insects in the dishes were counted, and the mortality was calculated by using the same equation as in Test Example 1. The test was carried out in duplicate.

A further data set relates to Rhipicephalus sanguineus. Kind of data set: Test on the effect on Rhipicephalus sanguineus (thin film in glass container). It counts as in vivo. The following applies: 96 h, application dose 10 μg/cm^2, protonymphs, 4 days after release, 25° C. On the procedure: (§1) 350 μl of the solutions were applied to the bottoms and the side walls of glass containers with an inner wall surface area of 35 cm^2, and acetone was volatilized to prepare thin films of the compounds on the inner walls of the glass containers. Since the inner wall surface area of each glass container was 35 cm^2, the application dose was 10 μg/cm^2.
To each glass container, five protonymphs (male and female) of Rhipiceohalus sanguineus were released, and the containers were covered with lids and placed in an incubator at 25° C. 4 Days after the release of the ticks, dead ticks were counted, and the mortality was calculated by using the same equation as in Test Example 1.

Data set [1] has as its system Nilaparvata lugens. Kind of data set: Insecticidal test on Nilaparvata lugens (rice sheaths soaked). It counts as in vivo. The settings on record: 144 h, 500 ppm solution, 3rd-instar larvae, 6 days after, 25° C. The protocol:
Rice sheaths were soaked in the solutions for about 10 seconds. After the soaking, the rice sheaths were dried in air and put in test tubes. In each tube, five 3rd-instar larvae of Nilaparvata lugens were released, and the tubes were capped with sponge and placed in an incubator at 25° C. 6 Days after, dead insects in the test tubes were counted, and the mortality (%) (the number of dead insects÷the number of released insects×100) was calculated. The test was carried out in duplicate.

For data set [2], the system named is Frankliniella occidentalis. Kind of data set: Insecticidal activity on Frankliniella occidentalis (kidney bean leaf spray). The settings on record: 48 h, 500 ppm solution sprayed (2.5 mg/cm^2), larvae on kidney bean leaves, 2 days after. It counts as in vivo. On the procedure: In styrol cups having an inner diameter of 7 cm, wet filter paper was laid, kidney bean leaves cut into a 3 cm square were laid on the paper, and each leaf was inoculated with 20 larvae of Frankliniella occidentalis. […] 2.5 ml of the solutions were sprayed from a rotary spray tower into the styrol cups (2.5 mg/cm^2).
2 Days after, dead insects were counted, and insect damage on kidney bean leaves was examined. The mortality was calculated by using the same equation as in Test Example 1.
The insect damage degree was evaluated as follows. 1: 0 to 20% insect damage, 2: 20 to 50% insect damage, 3: 50 to 70% insect damage, and 4: 70% or higher insect damge. The test was carried out in duplicate.

Data set [3] concerns Nilaparvata lugens. The data set can be described thus: Systemic insecticidal test on Nilaparvata lugens (rice seedling root dip). It counts as in vivo. The settings on record: 20 ppm solution, rice seedling roots dipped 7 days, 3rd-instar larvae, 6 days after release, 25° C. On the procedure: 7 Days after, the rice seedlings were picked and put in test tubes, and in each tube, five 3rd-instar larvae of Nilaparvata lugens were released, and the tubes were capped with sponge and placed in an incubator at 25° C. 6 Days after the release of the insects, dead insects were counted, and the mortality (%) (the number of dead insects÷the number of released insects×100) was calculated. The test was carried out in duplicate.

In data set [4] the test system is Plutella xylostella. Kind of data set: Insecticidal test on Plutella xylostella (cabbage leaves soaked). Format: in vivo. The following applies: 144 h, 500 ppm solution, 3rd-instar larvae, 6 days after, 25° C. The protocol: Leaves of cabbage were soaked in the solutions for about 10 seconds. After the soaking, the leaves were dried in air and placed in dishes. In each dish, five 3rd-instar larvae of Plutella xylostella were released, and the dishes were covered with lids and placed in an incubator at 25° C. 6 Days after, dead insects in the dishes were counted, and the mortality was calculated by using the same equation as in Test Example 1. The test was carried out in duplicate.

Data set [5] deals with Plutella xylostella. The data set can be described thus: Soil irrigation test on Plutella xylostella. It counts as in vivo. The following applies: 144 h, 500 ppm solution, 10 ml soil irrigation of cabbage seedlings, leaves picked 5 days after, 3rd-instar larvae, 6 days after. The protocol:
The soil around the bases of cabbage seedlings (at the 2.5-leaf stage) planted in plastic cups was irrigated with 10 ml of the solutions. After the irrigation, the cabbage seedlings were placed in a greenhouse. 5 Days after the irrigation, leaves of cabbage were picked and placed in dishes. In each dish, five 3rd-instar larvae of Plutella xylostella were released, and the dishes were covered with lids and placed in an incubator at 25° C. 6 Days after, dead insects in the dishes were counted, and the mortality was calculated by using the same equation as in Test Example 1. The test was carried out in duplicate.

The next data set deals with Ctenocephalides felis. Kind of data set: Test on the effect on Ctenocephalides felis (thin film in glass container). It counts as in vivo. The following applies: 96 h, application dose 10 μg/cm^2, adults, 4 days after release, 25° C. The protocol:
as §1
To each glass container, five adults (male and female) of Ctenocephalides felis were released, and the containers were covered with lids and placed in an incubator at 25° C. 4 Days after the release of the fleas, dead fleas were counted, and the mortality was calculated by using the same equation as in Test Example 1.

Another data set has as its system Myzus persicae. Kind of data set: Insecticidal test on Myzus persicae (cabbage leaf spray). The settings on record: 144 h, 500 ppm solution sprayed (2.5 mg/cm^2), apterous adults on cabbage leaves, 6 days after, 25° C. Format: in vivo. On the procedure:
Wet absorbent cotton was laid on glass dishes having an inner diameter of 3 cm, and covered with leaves of cabbage cut into circles of the same diameter, and 4 apterous adults of Myzus persicae were released. […] The solutions were sprayed from a rotary spray tower (2.5 mg/cm^2), and the dishes were covered with lids and placed in an incubator at 25° C. 6 Days after, dead insects were counted, and the mortality was calculated by using the same equation as in Test Example 1. The test was carried out in duplicate.

On to `CCS(=O)(=O)c1c(-c2nc3cc(C(F)(F)F)cnc3n2C)nc2cc(C(F)(F)F)cnn12` [1-1-057a, 2-[3-(ethylsulfonyl)-7-(trifluoromethyl)imidazo[1,2-b]pyridazin-2-yl]-3-methyl-6-(trifluoromethyl)-3H-imidazo[4,5-b]pyridine], for which the mortality at 500 ppm was not below 90% in the data set on Spodoptera litura; not below 90% in the data set on Nilaparvata lugens [1]; not below 50% in [2]; not below 90% in the data set on Plutella xylostella [4]; not below 90% with Myzus persicae. The mortality at 10 µg/cm2 in the data set with Rhipicephalus sanguineus and in the data set with Ctenocephalides felis was not below 50% each time. This compound also returned a mortality at 20 ppm in the data set with Nilaparvata lugens [3] not below 90%. This compound showed a pest or weed control at 500 ppm in the data set with Plutella xylostella [5] not below 90%.

As for `CCS(=O)(=O)c1c(-c2nc3cc(C(F)(F)F)cnc3n2C)nc2cc(C(F)(F)F)ncn12` [1-1-055a, 2-[3-(ethylsulfonyl)-7-(trifluoromethyl)imidazo[1,2-c]pyrimidin-2-yl]-3-methyl-6-(trifluoromethyl)-3H-imidazo[4,5-b]pyridine], the mortality at 10 µg/cm2 in the data set on Rhipicephalus sanguineus and in the data set on Ctenocephalides felis was not below 50% in each case. In addition, the mortality at 500 ppm in the data set with Plutella xylostella [4] is not below 90%.

With `CC[S+]([O-])c1c(-c2nc3cc(C(F)(F)F)cnc3n2C)nc2cc(C(F)(F)F)cnn12` (stereo not drawn) [1-1-057c, 2-[3-(ethylsulfinyl)-7-(trifluoromethyl)imidazo[1,2-b]pyridazin-2-yl]-3-methyl-6-(trifluoromethyl)-3H-imidazo[4,5-b]pyridine], the mortality at 500 ppm was not below 90% in the data set with Spodoptera litura; not below 90% with Nilaparvata lugens [1]; not below 50% in data set [2]; not below 90% in the data set on Plutella xylostella [4]; not below 90% in the data set on Myzus persicae. Further, the mortality at 10 µg/cm2 with Rhipicephalus sanguineus and in the data set on Ctenocephalides felis was not below 50% throughout. The compound also returned a mortality at 20 ppm in the data set with Nilaparvata lugens [3] not below 90%.

Consider `CCSc1c(-c2nc3cc(C(F)(F)F)cnc3n2C)nc2cnc(C(F)(F)F)cn12` [1-1-029b, 2-[3-(ethylthio)-6-(trifluoromethyl)imidazo[1,2-a]pyrazin-2-yl]-3-methyl-6-(trifluoromethyl)-3H-imidazo[4,5-b]pyridine], for which the melting point lay within 220 to 222 °C.

The compound `CCSc1c(-c2nc3cc(C(F)(F)F)cnc3s2)nc2cc(C(F)(F)F)ccn12` [1-13-001b, 2-[3-(ethylthio)-7-(trifluoromethyl)imidazo[1,2-a]pyridin-2-yl]-6-(trifluoromethyl)thiazolo[5,4-b]pyridine] registered a melting point of 150 to 160 °C.

Compound `CCSc1c(-c2nc3nc(C(F)(F)F)ccc3n2C)nc2cc(C(F)(F)F)ccn12` [1-7-001b, 2-[3-(ethylthio)-7-(trifluoromethyl)imidazo[1,2-a]pyridin-2-yl]-1-methyl-5-(trifluoromethyl)-1H-imidazo[4,5-b]pyridine] showed a melting point of 164 to 166 °C.

As for `CCS(=O)(=O)c1c(-c2nc3cc(C(F)(F)F)cnc3n2C)nc2cc(C(F)(F)F)ccn12` [1-1-002a, 2-[3-(ethylsulfonyl)-7-(trifluoromethyl)imidazo[1,2-a]pyridin-2-yl]-3-methyl-6-(trifluoromethyl)-3H-imidazo[4,5-b]pyridine], the mortality at 500 ppm in the data set with Spodoptera litura, in the data set with Nilaparvata lugens [1], in the data set with Plutella xylostella [4] and in the data set with Myzus persicae was not below 90% each time. For the same compound, the mortality at 10 µg/cm2 with Rhipicephalus sanguineus and in the data set on Ctenocephalides felis was not below 50% throughout. In the data set with Nilaparvata lugens [3], this compound displayed a mortality at 20 ppm not below 90%. In addition, the pest or weed control at 500 ppm in the data set with Plutella xylostella [5] was not below 90%.

`CCCCC(CC)COC(=O)CCSc1cnc2c(c1)nc(-c1nc3cc(C(F)(F)F)ccn3c1SCC)n2C` (stereo not drawn) [1-1-028b, 2-ethylhexyl 3-((2-(3-(ethylthio)-7-(trifluoromethyl)imidazo[1,2-a]pyridin-2-yl)-3-methyl-3H-imidazo[4,5-b]pyridin-6-yl)thio)propanoate] yielded a melting point of 94 to 96 °C.

As for `CCSc1c(-c2nc3cc(SC(F)(F)F)cnc3n2C)nc2cc(C(F)(F)F)ccn12` [1-1-027b, 2-[3-(ethylthio)-7-(trifluoromethyl)imidazo[1,2-a]pyridin-2-yl]-3-methyl-6-((trifluoromethyl)thio)-3H-imidazo[4,5-b]pyridine], the mortality at 500 ppm in the data set with Spodoptera litura and in the data set on Plutella xylostella [4] was not below 90% each time. The mortality at 10 µg/cm2 in the data set on Rhipicephalus sanguineus and in the data set on Ctenocephalides felis was not below 50% each time.

In the case of `CCSc1c(-c2nc3cc(I)cnc3n2C)nc2cc(C(F)(F)F)ccn12` [1-1-026b, 2-[3-(ethylthio)-7-(trifluoromethyl)imidazo[1,2-a]pyridin-2-yl]-6-iodo-3-methyl-3H-imidazo[4,5-b]pyridine], the melting point is 230 to 233 °C.

For the compound `CCSc1c(-c2nc3cc(C(F)(F)F)cnc3n2C)sc2ccc(C(F)(F)F)cc12` [3-1-002b, 2-[3-(ethylthio)-5-(trifluoromethyl)benzo[b]thiophen-2-yl]-3-methyl-6-(trifluoromethyl)-3H-imidazo[4,5-b]pyridine], the mortality at 500 ppm in the data set on Spodoptera litura and with Plutella xylostella [4] was not below 90% throughout. Moreover, the mortality at 10 µg/cm2 in the data set with Rhipicephalus sanguineus and in the data set with Ctenocephalides felis was not below 50% in each case. This compound also yielded a mortality at 20 ppm in the data set on Nilaparvata lugens [3] not below 90%.

In the case of `CCSc1c(-c2nc3cc(C(F)(F)F)ncc3n2C)nc2cc(Cl)ccn12` [1-8-006b, 2-[7-chloro-3-(ethylthio)imidazo[1,2-a]pyridin-2-yl]-3-methyl-6-(trifluoromethyl)-3H-imidazo[4,5-c]pyridine], the mortality at 500 ppm in the data set on Spodoptera litura and with Plutella xylostella [4] was not below 90% in each case. The mortality at 10 µg/cm2 in the data set on Rhipicephalus sanguineus and with Ctenocephalides felis was not below 50% each time.

On to `CCS(=O)(=O)c1c(-c2nc3cc(C(F)(F)F)ncc3n2C)nc2cc(C(F)(F)F)ccn12` [1-8-005a, 2-[3-(ethylsulfonyl)-7-(trifluoromethyl)imidazo[1,2-a]pyridin-2-yl]-3-methyl-6-(trifluoromethyl)-3H-imidazo[4,5-c]pyridine], for which the mortality at 500 ppm with Spodoptera litura, in the data set with Nilaparvata lugens [1], in the data set on Plutella xylostella [4] and in the data set on Myzus persicae was not below 90% each time. The mortality at 10 µg/cm2 in the data set with Rhipicephalus sanguineus and in the data set on Ctenocephalides felis was not below 50% each time. The compound also had a mortality at 20 ppm in the data set with Nilaparvata lugens [3] not below 90%. Further, the pest or weed control at 500 ppm in the data set with Plutella xylostella [5] was not below 90%.
